Results reported in a melting point compilation (Tetko et al.).

| Structure (SMILES) | melting point [°C] |
| --- | --- |
| CC(C(=O)O)N1CCSCC1 (centres undefined) | 199 to 201 |
| NS(=O)(=O)c1c(F)cccc1[N+](=O)[O-] | 163 to 165 |
| CC(O)c1cccc(O)c1 (centres undefined) | 112 to 114 |
| CC1=NN(c2cc(C)ccc2C)C(=O)C1 | 164 to 166 |
| O=C(O)C1CCCN1c1ncnc2sccc12 (centres undefined) | 211 to 213 |
| COc1cc([N+](=O)[O-])cc2sc(N)nc12 | 279 to 281 |
| O=C(O)CCc1n[nH]c(S)nc1=O | 162 to 164 |
| O=C(O)c1cc2ccccn2c1 | 179 to 181 |
| CC(=O)Nc1ccc(NC(=O)CC#N)cc1 | 305 to 307 |
| CC(C)NC(=O)c1cn[nH]c1N | 179 to 181 |
| CC(C)(C)NC(=O)c1ccccc1N | 124 to 125 |
| N#Cc1c(CCl)cn2ccccc12 | 143 to 145 |
| NC(=O)c1c[nH]c(C(=O)O)c1 | 264 to 266 |
| C1CC2OC1C1CNCC21 (centres undefined) | 53 to 55 |
| O=Cc1cnc(-c2ccccn2)s1 | 149 to 151 |
| O=[N+]([O-])C=Cc1ccc(SC(F)(F)F)cc1 | 136 to 138 |
| O=C1CCC(O)(c2ccccc2)CC1 | 126 to 128 |
| O=C(O)CCC(NC(=O)Cc1ccc2ccccc2c1)C(=O)O (centres undefined) | 173 to 175 |
| COc1cc(C#N)ccc1OCCCl | 95 to 97 |
| COc1ccc(OC)c(NC(=O)C(C)Cl)c1 (centres undefined) | 56 to 58 |
| O=C(CCl)Nc1ccccc1C(=O)NC1CC1 | 170 to 172 |

| Structure (SMILES) | melting point [°C] |
| --- | --- |
| COc1ccc(C(=O)CBr)cc1OC | 83 to 85 |
| Nc1ccc(NC(=O)c2ccoc2)cc1C(F)(F)F | 121 to 123 |
| Clc1ccc(NCc2cccnc2)cc1 | 98 to 100 |
| O=c1[nH]cnc2cc(-c3ccc(Cl)cc3)sc12 | 327 to 329 |
| CC(C)(C)c1ccc(N2CCC(=O)CC2)cc1 | 69 to 71 |
| Nc1ccc(SCCCO)cc1 | 62 to 64 |
| Nc1ccc2nc(NC(=O)CN3CCOCC3)sc2c1 | 228 to 230 |
| CN(C)C=C(C#N)S(C)(=O)=O | 129 to 131 |
| Nc1ccc(F)c(-n2nnnc2C2CC2)c1 | 93 to 95 |
| Cc1cc(C)n(-c2ccc(CO)cc2)n1 | < 17 |
| Nc1[nH]ncc1[N+](=O)[O-] | 237 to 239 |
| NCC(O)c1cc(Cl)c2c(c1)OCCO2 (centres undefined) | 131 to 133 |
| CC(=O)N1CCCC(C(N)=O)C1 (centres undefined) | 146 to 148 |
| COc1ccc(N)cc1OCCN(C)C | 70 to 72 |
| CC(C)(C)C1CCc2sc(C(=O)O)cc2C1 (centres undefined) | 169 to 171 |
| CC(C)C(C(=O)O)N1CCN(C)CC1 (centres undefined) | 195 to 197 |
| O=C(O)Cc1cccc(OCc2ccc(Cl)cc2)c1 | 126 to 128 |
| Oc1nc(-c2ccc(Cl)cc2)cs1 | 218 to 220 |
| N#Cc1ccc(C(=O)N2CCOCC2)cc1 | 144 to 146 |
| Cc1occc1-c1nnc(S)n1-c1ccccc1 | 234 to 236 |
| CC(C)(C)OC(=O)N1C2CCC1C(C(=O)O)C2 (centres undefined) | 144 to 146 |

| Structure (SMILES) | melting point [°C] |
| --- | --- |
| Cc1c(N)cccc1-c1nc2cc(F)ccc2n1C1CC1 | 131 to 133 |
| O=C1CCC2(CCN1)OCCO2 | 101 to 103 |
| Nc1cc(Cl)c(N)cc1Cl | 164 to 166 |
| O=C(O)CCn1c(=O)oc2cc(S(=O)(=O)N3CCCC3)ccc21 | 190 to 192 |
| NC(C(=O)O)c1ccccc1C(F)(F)F (centres undefined) | 282 to 284 |
| Brc1ccccc1Oc1cccnn1 | 109 to 111 |
| CC(=O)N1CCC(S(=O)(=O)Cl)CC1 | 95 to 97 |
| CC1(C)NC(=O)C1(C)C | 95 to 97 |
| CS(=O)(=O)CCc1ccc(N)cc1 | 93 to 95 |
| Cc1ccc(NC2CCCCC2)nc1 | 89 to 91 |
| CC1CCN(C(=O)CCl)c2ccccc2S1 (centres undefined) | 125 to 127 |
| O=C(O)Cc1c[nH]c2cc(F)ccc12 | 159 to 161 |
| COc1cc(N)c(N)cc1OC | 126 to 128 |
| Cc1nnc2ccc(Cl)nn12 | 103 to 105 |
| O=c1[nH]cnc2cc(F)c([N+](=O)[O-])cc12 | 292 to 294 |
| O=C(O)CCN1C(=O)C(=Cc2ccc(F)cc2)SC1=S | 135 to 137 |
| NC(=O)c1cc(N)nc2ccccc12 | 199 to 201 |
| COC(=O)c1nccc(Cl)c1F | 49 to 51 |
| O=C(C1CCCCC1)N1CCNCC1 | 86 to 88 |

Further lines, results first:

| melting point [°C] | Structure (SMILES) |
| --- | --- |
| 111 to 113 | C#CCN1C(=O)COc2ccc(Br)cc21 |
| 132 to 134 | CS(=O)(=O)c1ccc(NN)cc1 |
| 144 to 146 | O=C(O)C(Oc1cc(Cl)ccc1Cl)c1ccccc1 (centres undefined) |
| 154 to 156 | Clc1cc(Cl)cc(-c2nnc(Br)s2)c1 |
| 116 to 118 | Cc1ccc(NS(C)(=O)=O)c(N)c1 |
| 82 to 84 | CN(CCO)c1ccc(N)nc1 |
| 124 to 126 | CC(C)(C)NS(=O)(=O)c1ccc(NN)nc1 |
| 103 to 105 | CC(C)c1cnc(-c2ccc([N+](=O)[O-])cc2)o1 |
| 65 to 67 | CC(C)(C)OC(=O)NC(CN)c1ccccc1 (centres undefined) |
| 51 to 53 | Cc1cc(CO)nc(N2CCCCC2)n1 |
| 68 to 70 | CCS(=O)(=O)Nc1ccccc1F |
| 92 to 94 | COc1ccc(Br)cc1C(=O)CBr |
| 239 to 241 | CCOC(=O)c1nnc2ccccc2c1N |
| 203 to 205 | CC(=O)c1ccc(-n2c(C)c[nH]c2=O)cc1 |
| 180 to 182 | O=C(O)c1cc(N/N=C/c2ccccc2Br)ccc1Cl |
| 74 to 76 | O=C(CCl)NCC1(c2ccccc2)CCCC1 |
| 146 to 148 | CC(C)(C)NC(=O)c1ccccc1C(=O)O |
| 171 to 173 | Cn1ccnc1SCC(=O)Nc1ccc(C(=O)O)cc1 |
| 191 to 193 | Cc1ccc2[nH]c(C(=O)O)c(Cl)c2c1 |
| 115 to 117 | CC(c1ccccc1)C(O)C(=O)O (centres undefined) |
| 109 to 111 | COc1ccc(C=O)cc1OCc1ccc([N+](=O)[O-])cc1 |

| melting point [°C] | Structure (SMILES) |
| --- | --- |
| 37 to 39 | O=C(CCl)Cc1c(F)cccc1Cl |
| 131 to 133 | COC(OC)(OC)c1cc2ccccc2c(=O)[nH]1 |
| 129 to 131 | CCOc1cc(C(=O)O)ccc1OCC(=O)N1CCCCC1 |
| 100 to 102 | COc1ccc(OC)c(N2CC(C(=O)O)CC2=O)c1 (centres undefined) |
| 189 to 191 | NC(=S)c1cccnc1N1CCNC(=O)C1 |
| 204 to 206 | Sc1ncccc1Cl |
| 104 to 106 | CNC(=O)CC(=O)O |
| 98 to 100 | O=S(=O)(c1cccs1)N1CCNCC1 |
| 34 to 36 | COC(=O)c1ncon1 |
| 122 to 124 | O=C(O)CCCN1C(=S)CSC1=S |
| 141 to 143 | O=C(O)c1ccccc1C(=O)c1cccs1 |
| 185 to 187 | Clc1ccc(-n2ccnc2)nn1 |
| 93 to 95 | Cc1c(NC(=S)Nc2c(C)n(C)n(-c3ccccc3)c2=O)c(=O)n(-c2ccccc2)n1C |
| 65 to 67 | Cc1oc(-c2cccs2)nc1CCl |
| 178 to 180 | Cc1ccc(-n2nc(C)c(C(=O)O)n2)c(C)c1 |
| 95 to 97 | COc1ccc(C(=O)c2cccc3ccccc23)cc1 |
| 137 to 139 | O=C(/C=C/c1ccco1)C(C(=O)/C=C/c1ccco1)=C1SCCCCS1 |
| 209 to 211 | O=C(O)c1ccc(N2CCc3ccccc3C2)cc1 |
| 106 to 108 | Nc1cccc(N2CCCC2=O)c1 |
| 146 to 148 | CC(C)c1c(C(=O)O)nnn1-c1ccc(F)cc1 |
| 216 to 218 | Cc1cccc2[nH]c(C(=O)O)cc12 |

| melting point [°C] | Structure (SMILES) |
| --- | --- |
| 110 to 112 | NC1CCN(c2ccc(F)c(Cl)c2)C1=O (centres undefined) |
| 265 to 267 | O=C(O)c1cc2cc(Cl)cc(Br)c2o1 |
| 152 to 155 | Nc1c(-c2ccccc2)nc2ccccn12 |
| 154 to 158 | CNS(=O)(=O)Cc1ccc(C#N)cc1 |
| 125 to 127 | N#CCN1C(=O)c2ccccc2C1=O |
| 91 to 93 | CCOC(=O)C(=O)CC(=O)c1ccccc1OCC |
| 164 to 166 | Cn1cc(S(=O)(=O)Cl)cc1C(=O)O |
| 249 to 251 | NC(=O)CNc1ccc(C(=O)O)cc1 |
| 135 to 137 | O=C(O)Cc1cn(-c2ccccc2)nc1-c1ccc(Br)cc1 |
| 57 to 59 | c1ccc2cc(C3CO3)ccc2c1 (centres undefined) |
| 147 to 149 | CCNC(=O)Nc1cc(F)ccc1N |
| 327 to 329 | Cn1[nH]c(=O)c2c(=O)cc[nH]c21 |
| 252 to 254 | Cc1ccc(-c2n[nH]c(=O)c3ccccc23)cc1C |
| 126 to 128 | CC1CCC2(CC1)COC(=O)N2 (centres undefined) |
| 133 to 135 | N#Cc1cccc(NC(=O)OCC(F)(F)F)c1 |
| 221 to 223 | O=c1[nH]c(CO)nc2ccccc12 |
| 216 to 218 | COc1cc(NC(=O)C(C)C)c(C(=O)O)cc1OC |
| 260 to 262 | Cc1ccc(-n2c(S)nnc2-c2ccncc2)cc1C |
| 181 to 185 | CCOC(=O)c1ccc2nc(CCC(=O)O)c(=O)n(CC)c2c1 |
| 193 to 195 | O=C(O)c1cc(-c2cccs2)n(-c2ccccc2)n1 |
| 116 to 118 | CCC(C)n1ncc(C(=O)O)c1C1CC1 (centres undefined) |

| melting point [°C] | Structure (SMILES) |
| --- | --- |
| 127 to 129 | N#CCc1ccc(-n2cccn2)cc1 |
| 234 to 236 | CC1=C(C(=O)O)Cc2ccccc2O1 |
| 65 to 67 | CC(C)c1cccc(OCC(=O)O)c1 |
| 189 to 191 | Cc1ccc(C2(C(=O)O)CCOCC2)cc1 |
| 142 to 144 | CC(Oc1cc(Cl)cc(Cl)c1)C(=O)O (centres undefined) |
| 166 to 168 | CCN1CCCC1CN1CC(C(=O)O)CC1=O (centres undefined) |
| 197 to 199 | COC(=O)C(C#N)c1nc2ccccc2nc1Cl (centres undefined) |
| 147 to 149 | CCC(C)[C@H](NC(=O)N1CCCC1)C(=O)O (some centres undefined) |
| 229 to 231 | O=C(O)C1CCc2[nH]ncc2C1 (centres undefined) |
| 76 to 78 | OCCCc1nc2ncccn2n1 |
| 233 to 235 | O=C1NC(=O)c2cnccc21 |
| 230 to 232 | COC(=O)c1ccc(-c2nn[nH]n2)cc1 |
| 47 to 49 | C#Cc1cccc(OC)n1 |
| 178 to 180 | Nc1c(Cl)nc2ccccc2c1N |
| 187 to 189 | CC(C1CC1)N(C)C(=O)c1ccc[nH]c1=O (centres undefined) |
| 111 to 113 | Nc1nc(-c2ccc(F)cc2)cs1 |
| 150 to 155 | CC(=O)N(c1nc(CCl)cs1)c1ccccc1F |
| 90 to 92 | NCc1ccc(N2CCN(c3ncccn3)CC2)c(F)c1 |
| 272 to 274 | Cn1cc(/C=C/C(=O)O)c(=O)n(C)c1=O |
| 61 to 63 | O=C(c1ccc(F)cc1)c1ccccc1Cl |
